The values below come from US11547682B2, “Use of formin agonists in overcoming brain tumor radio- and chemo-resistance by targeting tumor microtubes” (The University of Toledo, priority 2019, dated 2023).

In data set [1] the test system is tumor microtubes (TMs) in Pat9 neurospheres. Put plainly: Tumor microtube (TM) formation and length in neurosphere edge cells (IF, Metamorph). It is filed as cell-based, human. As to conditions: for tumor TM length upon drug washout: 50 μM. The method, then:
FIGS. 6A-6E: Tumor microtube shortening and amoeboid cell morphologies in IMM-treated HGG patient-derived neurospheres. […] Left-most boxes indicate areas of magnification shown. Scale bar (upper panel)=25 μm; (lower panel 100 μm). FIGS. 6B-6C show tumor TM lengths were measured using Metamorph software from cell nuclei to tumor TM ends. TMs measured from N>196 cells across three replicate experiments. TMs were measured in control (FIG. 6B), or drug washout experiments using 50 μM IMM01 or IMM02 where m=maintained drug and r=washout (FIG. 6C). Data are shown as scatter plots in FIGS. 6B-6C, or histograms (FIGS. 6B′, 6C′). […] FIGS. 6D, 6D′ show cellular morphologies measured in neurosphere edge cells and EI were calculated by dividing cell long by short axes, where EI=1 is a rounded cell, and E>1 is an elongated cell. N>196 cells across three replicate experiments. Data are shown as scatter plots (FIG. 6D, 6E), or histograms (FIG. 6D′, FIG. 6E′).
FIG. 11: Tumor TM measurements in HGG patient neurospheres. Pat9 neurospheres invaded for 96 h in matrigel in the presence of DMSO, 50 μM IMM01, or 50 μM IMM02. Tumor TMs were measured using Metamorph software by drawing lines (colored lines) along the length of tumor TMs from cell bodies to the end of the tumor TM using brightfield images.
IF was performed on fixed Pat9 neurospheres treated with or without IMMs for 96 h (FIGS. 5A-5B, respectively). mDia1, mDia2, F-actin, β-tubulin, or de-tyrosinated β-tubulin (glu-tubulin) were visualized (to assess stabilized microtubules). Invaded control neurospheres had diffuse invasive fronts, with extensive symmetrical invasion away from the central neurosphere core. Both mDia1 and mDia2 were diffusely cytoplasmic. […] Some cells were enriched in traditional parallel lamellar actin stress fibers and others with numerous radial F-actin-enriched filopodia-like structures (FIG. 8). […]
Cell protrusions were confirmed by IF to robustly express punctate Connexin-43 (FIG. 6A). […] Tumor TM length was measured in neurosphere edge cells in IMM-treated Pat9 neurospheres. […]

A further data set deals with Pat9 HGG neurospheres. Put plainly: 3D matrigel invasion assay of patient-derived HGG neurospheres (Pat9). The data set is classed as cell-based, human. The conditions noted are these: within 24 h; for neurosphere invasion (change in area over T0): 10-50 μM at embedding, refreshed daily, maintained through 48 h, relative to controls. The protocol:
Pat8 and Pat9 HGG neurospheres were embedded in matrigel and allowed to invade. […] Images were captured at embedding (T0) and every 24 h. Invasion area was calculated as increase in area over T0 Pat9 or Pat8 neurosphere areas (FIGS. 3A-3B, respectively). Both Pat9 and Pat8 neurospheres robustly invaded through 48 h, similar to control vehicle-treated neurospheres.
It was previously shown in U87 spheroids that IMM invasion blockade was reversible. Whether IMM anti-invasion effects were reversible was assessed (FIGS. 4A-4B). Pat9 neurospheres were incubated with vehicle or IMMs for 48 h. Drug washouts were then performed with drug-free media and invasion continued for 48 h. As before, IMM removal released invasion suppression relative to neurospheres held in IMMs for 96 h. The live-dead cell dye Draq7 was then used on invading neurospheres treated with IMMs. […] Unexpectedly, when started at 48 h post-invasion in B27-treated control invading neurospheres, IMM treatment for 48 h thereafter induced robust cell death (FIG. 4C).
(§1) Neurospheres formed spontaneously in isolated patient sample monolayer cells. Once spheres detach from monolayers, they were collected using wide-orifice pipette tips and moved to poly-HEMA (Sigma) coated U-bottom 96-well plates. Neurospheres were used upon reaching 200-250 μm diameter. Once neurospheres reached 350 μm, they were dissociated and re-plated in poly-HEMA U-bottom plates at 2000 cells/well.
3D invasion assays were as described. Briefly, a thin layer of 5 mg/ml GFR matrigel (Corning) was placed in 8-well chamber glasses (Lab-tek). Neurospheres were added and topped with thin-layer matrigel. Matrigel polymerized for 45 min at 37° C. before addition of 250 μl of media with IMMs. Invasions were imaged at time zero (T0) and every 24 h for experimental durations. Invaded spheroids/spontaneous neurospheres were imaged using an EVOS inverted microscope with an Olympus 4×UplanFL N0.13 PhP objective lens. All measurements were completed with MetaMorph software (Molecular Devices).

The next data set has as its system p53. The conditions noted are these: cited from earlier work.
In a further data set the test system is U251 monolayers. The conditions noted are these: 2D U251 monolayers; cited from earlier work.
In a further data set the test system is Pat8 HGG neurospheres. Put plainly: 3D matrigel invasion assay of patient-derived HGG neurospheres (Pat8). As to conditions: 10-50 μM at embedding, refreshed daily, within 24 h, maintained through 48 h, relative to controls. The data set is classed as cell-based, human. The method, then:
Pat8 and Pat9 HGG neurospheres were embedded in matrigel and allowed to invade. At embedding, neurospheres were treated with 10-50 μM IMM01 or IMM02 and refreshed daily. Images were captured at embedding (T0) and every 24 h. Invasion area was calculated as increase in area over T0 Pat9 or Pat8 neurosphere areas (FIGS. 3A-3B, respectively). Both Pat9 and Pat8 neurospheres robustly invaded through 48 h, similar to control vehicle-treated neurospheres.
as §1
3D invasion assays were as described. Briefly, a thin layer of 5 mg/ml GFR matrigel (Corning) was placed in 8-well chamber glasses (Lab-tek). Neurospheres were added and topped with thin-layer matrigel. Matrigel polymerized for 45 min at 37° C. before addition of 250 μl of media with IMMs. Invasions were imaged at time zero (T0) and every 24 h for experimental durations. Invaded spheroids/spontaneous neurospheres were imaged using an EVOS inverted microscope with an Olympus 4×UplanFL N0.13 PhP objective lens. […]

For a further data set, the system named is mDia. As to conditions: cited from earlier work.

`COC(=O)Nc1nc2ccc(C(=O)c3cccs3)cc2[nH]1` [nocadazole, nocodazole, reference compound]: in data set [1] (1 μM, within 24 h), the “tumor TM formation” value is given as “halted”. Also, the neurosphere invasion entry with Pat9 HGG neurospheres (1 μM) is “halted”.
As for `O=C1NC(=S)N(c2cccc(Br)c2)C(=O)/C1=C/c1ccco1` [SMIFH2], the p53 expression entry with p53 is recorded as “downregulated p53 expression”.
Turning to `C/C(=N\NC(=S)NC(C)(C)C)c1cc(F)cc(F)c1O` [IMM02, N1-(tert-butyl)-2-[1-(3,5-difluoro-2-hydroxyphenyl)ethylidene]hydrazine-1-carbothioamide], the “tumor TM length upon drug washout” value in data set [1] is reported as “recovered to controls”. Also, the “neurosphere invasion (change in area over T0)” value in the data set on Pat9 HGG neurospheres and with Pat8 HGG neurospheres was “significantly halted invasion” each time. In the data set with U251 monolayers, the “cell cycle progression, apoptosis/multi-nucleation” value is recorded as “neither changes in cell cycle progression, nor increases in apoptosis/multi-nucleation”. Moreover, the “mDia autoinhibition / F-actin polymerization” value with mDia is given as “relieved mDia autoinhibition to induce F-actin polymerization”.
In the case of `CC(C)(C)NC(=S)N/N=C/c1ccc(O)cc1O` [IMM01, 2-[(2,4-dihydroxyphenyl)methylene]-N-(1,1-dimethylethyl)-hydrazinecarbothioamide], in data set [1], the “tumor TM length upon drug washout” value is on record as “recovered to controls”. The “neurosphere invasion (change in area over T0)” value in the data set on Pat9 HGG neurospheres and with Pat8 HGG neurospheres was “significantly halted invasion” each time. Also, the “cell cycle progression, apoptosis/multi-nucleation” value in the data set with U251 monolayers is listed as “neither changes in cell cycle progression, nor increases in apoptosis/multi-nucleation”. Further, the “mDia autoinhibition / F-actin polymerization” value in the data set with mDia is given as “relieved mDia autoinhibition to induce F-actin polymerization”.
